In patent US20120195862A1, “BIO[…] OF HEMATOPOIESIS” (CHILDREN'S MEDICAL CENTER CORPORATION, priority 2009, published 2012):
Entries after “also recorded” stand apart in the source; their conditions may differ.

Key:
Runx1 = test: Quantitative real-time PCR gene expression analysis of Runx1 in ES-derived cells (CD41+/cKit+); format: cell-based, mouse; conditions: 2 mM; for Runx1 expression in static cultures of ES-derived cells: static conditions, n=2
Procedure: (§1) More specifically, in the instant approach, plates were coated with a thick layer of 1% gelatin (DIFCO #214340, Becton Dickinson). After 12 hr, cells were washed three times with 10 ml of warm PBS with calcium and incubated for 45 min with EB differentiation media with or without 2 mM N(G)-nitro-L-arginine methyl ester (L-NAME) or 2 mM N(G)-nitro-D-arginine methyl ester (D-NAME) (Sigma-Aldrich). Cells to be moved to the dynamic flow system were incubated in 7 ml of media, and static controls incubated in 20 ml of media. Following 45 min incubation, cells were either moved to the Dynamic Flow System and exposed to shear stress or maintained in a standard cell culture incubator. The shear stress ramped up in a step-wise fashion from 0 dyne/cm^2 to 5 dyne/cm^2 over a period of 12 hr, in order to minimize cell loss during the transition from static to dynamic culture. Following the 12 hr ramping period, the cells were then exposed to a constant 5 dyne/cm^2 shear stress for 36 hr. In cells exposed to shear stress, culture media with or without D-NAME or L-NAME were automatically exchanged and stored at 37° C. and 5% CO2. In static controls, culture medium was replaced after 24 hr and stored in 75 cm^2 flasks in a cell culture incubator. After 48 hr exposure to shear stress or growth under static conditions, cells were detached by 10 min incubation with a 1:1 dilution of Trypsin-Versene mixture (Cambrex, #17-161E) and Hank's Balanced Salt Solution.
Total RNA was extracted with a RNEASY® Micro Kit (QIAGEN, Inc., Valencia, Calif.), according to manufacturer's instructions. For RNA extraction from CD41^+/cKIT^+ cells, approximately 7,000 cells were sorted directly into 300 μl of Lysis Buffer. Reverse transcription of RNA was performed using MULTISCRIBE™ […] (Applied Biosystems, Foster City, Calif.), according to manufacturer's instructions. When processing FACS-sorted cells, RNA was eluted in 20 μl and all collected RNA was used in 50 μl reverse transcription reaction. […]

ES-derived cells = test: Methylcellulose hematopoietic colony forming unit (CFU) assay of ES-derived cells exposed to wall shear stress or static culture; format: cell-based, mouse; conditions: 2 mM; for number of CFUs in ES-derived cultures in static conditions: static conditions (no shear stress), n=2
Procedure: Ainv15 CDX4-inducible mouse embryonic stem cells (iCDX4 ES) were cultured on mitomycin-treated Mouse Embryonic Fibroblasts (MEFs) (Chemicon, strain CF-1) and passaged every 2 to 3 days with 0.25% trypsin/EDTA as previously described. Wang et al., 102 P.N.A.S. 19081-86 (2005). To induce differentiation, ES cells were trypsinized, gently dispersed by repetitive pipetting and re-plated for 45 min at 37° C. for MEF depletion. Floating and loosely-adherent cells were gathered, checked for viability with trypan blue, and diluted in Embryoid Body (EB) differentiation media (Iscove's Modified Dulbecco's Medium [IMDM], 10% FCS [STEMCELL Tech., Vancouver, British Columbia, cat #06952], Penicillin 10 units/ml, Streptomycin 10 μg/ml, 1 mM L-Glutamine, Monothiolglycerol 3.8 nl/ml, Fe-saturated transferrin 0.2 mg/ml, Ascorbic Acid 0.5 mg/ml), to a final concentration of 6.7×10^3 cell/ml. EBs were cultured via the hanging drop method in 15 μl drops on 15 cm bacterial dishes. Typically, 100 plates of EBs were used per experiment. After 48 hr, EBs were pooled into calcium and magnesium containing warm PBS and collected by precipitation in 50 ml Falcon tubes. Pooled EBs were transferred to 10 cm tissue culture dishes containing 10 ml of EB differentiation media each, placed on an orbital shaker moving at 75 rev/min, and incubated for an additional 30 hr. Following this second culture phase, day 3.25-EBs were collected by precipitation, washed two times in 30 ml calcium-free PBS and trypsinized for 1 min in a 1:1 dilution of calcium-free PBS and 0.25% Trypsin-EDTA. Trypsinization was blocked by addition of 10 ml EB differentiation media.
as §1, with “In cells exposed to shear stress, culture media with or without D-NAME or L-NAME were automatically exchanged and stored at 37° C. and 5% CO2. In static controls, culture medium was replaced after 24 hr and stored in 75 cm^2 flasks in a cell culture incubator. After 48 hr exposure to shear stress or growth under static conditions, cells were detached by 10 min incubation with a 1:1 dilution of Trypsin-Versene mixture (Cambrex, #17-161E) and Hank's Balanced Salt Solution.” left out
Methylcellulose assay was performed as previously described and scored on days 8 to 10 post-plating. […]

[1] = test system: hematopoietic progenitors in the aorta-gonad-mesonephros (AGM) region; test: In vivo colony forming unit (CFU) assay of the AGM region after treating pregnant mice; set-up: species or system mouse; conditions: 300 mg/kg i.p. on E8.5 and 24 hr later, E10.5 embryos, versus D-NAME, p=0.0008
Procedure: Methylcellulose assay was performed as previously described and scored on days 8 to 10 post-plating. Wang et al., 102 P.N.A.S. 19081-86 (2005).
Day-7 post-coitum timed-pregnant Swiss-Webster mice were purchased from Taconic Farms. Noon on the day the copulation plug was found was designated 0.5 days. On day E8.5 (day 9 post coitum) mice were intraperitoneally injected with 300 mg/kg of L-NAME or D-NAME (SIGMA) dissolved in sterile, apyrogenic saline solution using a dose volume of 10 ml/kg. The injection was repeated after 24 hr. Exactly 24 hr after the second injection, mice were euthanized with CO2, embryos were harvested, and a conservative dissection of the AGM was performed. Embryo trunks were dissociated with 0.1% dispase and analyzed with the methylcellulose assay. Experiments were carried out with Institutional Animal Care and Use Committee approval from Harvard Medical School or Children's Hospital, Boston.

SMILES	Runx1 expression in static cultures of ES-derived cells (Runx1)	number of CFUs in ES-derived cultures in static conditions (ES-derived cells)	WSS-mediated Runx1 upregulation (Runx1; CD41+/cKit+ cells exposed to shear stress, n=3)	shear stress-induced enrichment in CFUs (ES-derived cells; shear stress, compared with cells treated with D-NAME)	reduction of the WSS-mediated increase in hematopoietic colony forming units (ES-derived cells; wall shear stress 5 dyne/cm^2, n=3, p=0.04) [%]	number of CFUs per AGM (hematopoietic progenitors in the AGM region) [1]
COC(=O)[C@H](N)CCCN=C(N)N[N+](=O)[O-] [D-NAME, N(G)-nitro-D-arginine methyl ester]	do not affect; also recorded: no effect	do not affect; also recorded: no effect	–	–	–	–
COC(=O)[C@@H](N)CCCNC(=N)N[N+](=O)[O-] [L-NAME, N(G)-nitro-L-arginine methyl ester]	do not affect; also recorded: no effect	do not affect; also recorded: no effect	does not affect; also recorded: did not affect	significant reduction	50	reduction; also recorded: marked decrease
